Source: patent US20180353462A1, “[…] AGENTS […] FLAVONOID DERIVATIVES TARGETING KINASES, SIRTUINS AND ONCOGENIC AGENTS FOR THE TREATMENT OF CANCERS” (priority 2015, published 2018)
pIC50: −log10 of the molar value. Where two headings read alike, the source gives them in different places.

Legend:
[1] = molecular target: T1, FLT3(D835Y) (Homo sapiens, UniProt P36888, D835Y); assay type: binding; conditions: for IC50: Table 1 kinase panel, read-out: IC50 (nM) FLT3(D835Y); for pIC50: Table 4, read-out: Acute Myeloid Leukemia Kinases FLT3-D835Y IC50
T1 construct: made in house
T1 sequence (P36888 27-993 D835Y): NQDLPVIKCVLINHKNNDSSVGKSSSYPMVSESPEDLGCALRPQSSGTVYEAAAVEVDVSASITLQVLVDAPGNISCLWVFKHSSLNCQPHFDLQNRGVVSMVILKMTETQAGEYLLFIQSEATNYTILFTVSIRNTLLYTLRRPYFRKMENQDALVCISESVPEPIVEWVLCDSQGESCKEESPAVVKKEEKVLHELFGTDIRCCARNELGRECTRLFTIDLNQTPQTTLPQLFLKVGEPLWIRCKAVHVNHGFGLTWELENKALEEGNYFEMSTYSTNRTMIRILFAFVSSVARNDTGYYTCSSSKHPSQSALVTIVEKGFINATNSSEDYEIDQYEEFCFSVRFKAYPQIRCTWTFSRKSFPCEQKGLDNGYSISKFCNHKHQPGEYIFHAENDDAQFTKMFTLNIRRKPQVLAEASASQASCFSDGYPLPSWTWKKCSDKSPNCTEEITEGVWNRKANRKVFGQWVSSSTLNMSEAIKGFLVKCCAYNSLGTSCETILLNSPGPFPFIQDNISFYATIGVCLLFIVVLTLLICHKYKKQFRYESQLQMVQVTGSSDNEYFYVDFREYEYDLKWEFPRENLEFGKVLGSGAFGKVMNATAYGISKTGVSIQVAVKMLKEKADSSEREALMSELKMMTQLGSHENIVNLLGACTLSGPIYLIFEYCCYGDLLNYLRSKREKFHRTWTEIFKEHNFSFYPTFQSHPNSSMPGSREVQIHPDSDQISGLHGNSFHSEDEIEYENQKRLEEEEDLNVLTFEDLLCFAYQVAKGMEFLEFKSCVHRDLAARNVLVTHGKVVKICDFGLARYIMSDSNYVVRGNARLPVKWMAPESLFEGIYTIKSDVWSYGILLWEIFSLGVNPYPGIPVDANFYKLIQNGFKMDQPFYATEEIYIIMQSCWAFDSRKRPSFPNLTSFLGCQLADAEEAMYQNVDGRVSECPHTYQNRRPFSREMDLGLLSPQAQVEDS
Protocol: Cannabis flavonoids and their analogs were subjected to kinase inhibition assay. The compounds were first screened at a single concentration of 10 μM in the primary assay. […] To determine the kd or IC50 values, competition binding assays were established, authenticated and executed as described previously. […] See also, Karaman et al., “A Quantitative Analysis Of Kinase Inhibitor Selectivity”, Nat. Biotechnol. […] For most assays, kinases were fused to T7 phage strains (Fabian, supra) and for the other assays, kinases were produced in HEK-293 cells after which they were tagged with DNA for quantitative PCR detection. In general, full-length constructs were used for small, single domain kinases, and catalytic domain constructs for large multi-domain kinases. […] The liganded beads were blocked with excess biotin and washed with blocking buffer (SeaBlock (Pierce), 1% BSA, 0.05% Tween 20, 1 mM DTT) to remove unbound ligand and to reduce non-specific phage binding. […] All reactions were performed in polypropylene 384-well plates in a final volume of 0.04 ml. […] The kinase concentration in the eluates was measured by quantitative PCR. An illustration of the kinase interaction process is presented below. Kd/IC50 values were determined using a standard dose response curve using the hill equation. Curves were fitted using a non-linear least square fit with the Levenberg-Marquardt algorithm.

[2] = system: MV4-11 (Leukemia); assay: WST-1 anticancer cell proliferation assay, MV4-11; assay type: cell-based; conditions: for IC50: Table 3, 72 hours, WST-1, read-out: IC50 (μM) MV4-11 (Leukemia); for pIC50: Table 4, read-out: Acute Myeloid Leukemia cell lines MV4-11 IC50
Protocol: (§1) Anticancer activity was tested against several standard cancer cell lines including brain, breast, Kaposi sarcoma, leukemia, lung, melanoma, tenosynovial giant cell tumor, ovarian, pancreatic, colon and prostate cancer. Cells were trypsinized and plated into 96 well plates in 50 μl of media and incubated overnight. The next day approximately 18 hours after plating, 50 μl of media containing the required flavonoid-based pharmaceutical composition was added per well. Cells were plated at a density so that 72 hours post drug addition, the cells will be in log phase (500)-2000 cells/well). The compounds and extracts were solubilized in Dimethyl sulfoxide (DMSO). The cells are allowed to proliferate for 72 hours 37° C. in humidified atmosphere of 5% CO2. The experiment is terminated using WST-1 (Roche®) 10 μl per well and absorbance is read at 450 nm %690 nm. The effect of drugs on growth is assessed as percent of cell viability. The IC50 values were determined from the extract dose versus control growth curves using Graphpad Prism® software. All experiments were carried out in duplicate and the mean results determined.

[3] = system: MOLM-14 acute myeloid leukemia cell line; assay: WST-1 anticancer cell proliferation assay, MOLM-14; assay type: cell-based; conditions: Table 4; read-out: Acute Myeloid Leukemia cell lines MOLM-14 IC50
Protocol: as §1

[4] = system: Normal Bone marrow; assay: Cell viability, normal bone marrow; assay type: cell-based; conditions: Table 4
Protocol: as §1, with “Bioactivity of the above-described compounds has been verified by an anticancer cell proliferation assay using the WST-1 (4-[3-(4-iodophenyl)-2-(4-nitrophenyl)-2H-5-tetrazolio]-1, 3-benzene disulfonate) colorimetric assay by Roche Life Sciences®. Anticancer” for “Anticancer”

[5] = system: THP-1 acute myeloid leukemia cell line; assay: WST-1 anticancer cell proliferation assay, THP-1; assay type: cell-based; conditions: Table 4; read-out: Acute Myeloid Leukemia cell lines THP-1 IC50
Protocol: as §1

For `COc1cc(-c2cc(=O)c3c(O)c(C/C=C(\C)CCC=C(C)C)c(O)cc3o2)ccc1O` [FBL-03A], the IC50 [1] was > 20000 nM.

`COc1cc(-c2cc(=O)c3c(O)c(CC=C(C)C)c(O)cc3o2)ccc1O` [FBL-03B] gave an IC50 [1] of 12.7 nM and an IC50 [2] of 1.43 µM.

For `COc1cc(-c2cc(=O)c3c(O)cc(O)c(C/C=C(\C)CCC=C(C)C)c3o2)ccc1O` [FBL-03C], the IC50 [1] was > 20000 nM.

In the case of `COc1ccc(-c2cc(=O)c3c(O)c(C/C=C(\C)CCC=C(C)C)c(O)cc3o2)cc1OC` [FBL-03D], the IC50 [1] was > 30000 nM.

Compound `COc1cc(-c2cc(=O)c3c(O)cc(O)c(CC=C(C)C)c3o2)ccc1O` [FBL-03G] has an IC50 [1] of 45 nM and an IC50 [2] of 3.1 µM.

For `COc1ccc(C2CC(=O)c3c(O)cc(O)cc3O2)cc1O` (stereo not shown) [FBLGS-74], the pIC50 [3] was < 4.00, the pIC50 [1] was 5.07 and the pIC50 [4] was < 4.00. For the same compound, the pIC50 [2] was < 4.00 and the pIC50 [5] was < 4.00.

`O=c1cc(-c2ccccc2)oc2cc(O)cc(O)c12` [FBLGS-75] was tested, and the pIC50 [3] was 5.34, the pIC50 [1] was 7.12 and the pIC50 [4] was < 4.00. For the same compound, the pIC50 [2] was 5.36 and the pIC50 [5] was < 4.00.

`Cc1cc2oc(-c3cccc(N)c3)cc(=O)c2c([N+](=O)[O-])c1C` [FBLGS-76] was tested, and the pIC50 [3] was 5.64, the pIC50 [1] was 6.17 and the pIC50 [4] was < 4.00. For the same compound, the pIC50 [2] was 5.72 and the pIC50 [5] was < 4.00.

For `O=c1cc(-c2ccc(O)c(O)c2)oc2cc(O)cc(O)c12` [FBLGS-77], the pIC50 [3] was 5.13, the pIC50 [1] was 6.24 and the pIC50 [4] was < 4.00. For the same compound, the pIC50 [2] was 5.14 and the pIC50 [5] was < 4.00.

For `COc1cc(O)c2c(=O)c(O)c(-c3ccc(O)c(O)c3)oc2c1` [FBLGS-78], the pIC50 [3] was 5.24, the pIC50 [1] was 6.83 and the pIC50 [4] was < 4.00. For the same compound, the pIC50 [2] was 5.25 and the pIC50 [5] was < 4.00.

With `COc1cc(O)c2c(=O)c(O)c(-c3ccc(O)c(O)c3)oc2c1` [FBLGS-79] the pIC50 [3] was 5.32, the pIC50 [1] was 7.89 and the pIC50 [4] was < 4.00. The pIC50 [2] was 5.47 and the pIC50 [5] was < 4.00.

`COc1cc(O)c2c(=O)c(O)c(-c3ccc(O)c(OC)c3)oc2c1` [FBLGS-80] was tested, and the pIC50 [3] was 5.21, the pIC50 [1] was 7.57 and the pIC50 [4] was < 4.00. The pIC50 [2] was 5.23 and the pIC50 [5] was < 4.00.

In the case of `COc1cc(-c2oc3cc(O)ccc3c(=O)c2O)ccc1O` [FBLGS-81], the pIC50 [3] was 6.15, the pIC50 [1] was 9.05 and the pIC50 [4] was < 4.00. For the same compound, the pIC50 [2] was 6.05 and the pIC50 [5] was < 4.00.

`O=C1CC(c2ccc(O)c(O)c2)Oc2cc(O)cc(O)c21` (stereo not shown) [FBLGS-82] was tested, and the pIC50 [3] was < 5.00, the pIC50 [1] was 4.96 and the pIC50 [4] was < 4.00. The pIC50 [2] was < 5.00 and the pIC50 [5] was < 4.00.

`O=c1c(O)c(-c2ccc(O)c(O)c2)oc2cc(O)ccc12` [FBLGS-83] gave a pIC50 [3] of 5.63, a pIC50 [1] of 7.09 and a pIC50 [2] of 5.80. The pIC50 [5] was 4.89.

`O=c1c(O)c(-c2ccc(O)c(O)c2)oc2cc(O)cc(O)c12` [FBLGS-84] was tested, and the pIC50 [3] was 5.13, the pIC50 [1] was 6.71 and the pIC50 [4] was < 4.00. It also gave a pIC50 [2] of 5.20.

`COc1cc(-c2cc(=O)c3c(O)c(OC)c(OC)cc3o2)ccc1O` [FBLGS-85] was tested, and the pIC50 [3] was 5.82, the pIC50 [1] was 7.66 and the pIC50 [4] was < 4.00. The pIC50 [2] was 6.05 and the pIC50 [5] was < 4.00.

With `COc1cc(-c2cc(=O)c3c(O)c(OC)c(O)cc3o2)ccc1O` [FBLGS-86] the pIC50 [3] was 5.51, the pIC50 [1] was 7.37 and the pIC50 [4] was < 4.00. For the same compound, the pIC50 [2] was 5.66 and the pIC50 [5] was < 4.00.
